Data: patent US20160082087A1, “WHITENING PROMOTING AGENT OR ATOPIC DERMATITIS AMELIORATING AGENT” (NITTA GELATIN INC., priority 2013, published 2016)
Marks after values point to notes of the source that are not given here. Square brackets hold non-standard residues; d marks the D form. Ends that are not written are not given here. Hyp = O=C(O)[C@@H]1C[C@@H](O)CN1

Columns and labels:
Type in all cases: cell-based, human
[1] = system: transglutaminase 1 (TGM1); experiment: TGM1 expression promotion test (real time PCR); conditions: 0.5 mM, 48 hours, NHEK (NB), control 1.00, GAPDH corrected
Method: (§1) A normal human epidermal keratinocyte NHEK (NB) (available from KURABO INDUSTRIES LTD.) was used. The cells were precultured in HuMedia-KG2 (available from KURABO INDUSTRIES LTD.), and 1.5×10^4 cells/mL×5 mL (7.5×10^4 cells/dish) were cultured in a 60 mm laboratory dish for two days. After confirming that the cells were subconfluent, the medium was replaced by 5 mL of HuMedia-KB2 (available from KURABO INDUSTRIES LTD.). Samples were added in respective concentrations, and allowed to react for 24 hours (ET-1, K10), 48 hours (TGM1, ivl, HAS2), and 72 hours (FLG). Total RNA was extracted from the cells, reverse transcribed, and subjected to real time PCR. In the real time PCR, as target genes, endoserine-1 (ET-1; Hs00174961_m1), keratin 10 (K10; Hs01043114_g1), transglutaminase 1 (TGM1; Hs01070310_m1), involucrin (ivl; Hs00846307_s1), filaggrin (FLG; Hs00856927_g1) and hyaluronic acid synthase 2 (HAS2; Hs00193435_m1) were measured. GAPDH was used as a correction gene. Calculation was conducted by using a calibration curve method, and FAM pigment of TaqMan Gene Expression was used in primers and probes.
(§2) For each peptide or the like of Examples 1 to 13 and Comparative Examples 1 to 27, RNA expression amounts of endoserine-1 (ET-1), keratin 10 (K10), transglutaminase 1 (TGM1), involucrin (ivl), filaggrin (FLG) and hyaluronic acid synthase 2 (HAS2) were measured. Values in the tables are each average value±standard deviation, and *, ** and *** denote that they are significant with P<0.05, P<0.01, and P<0.001, respectively with respect to the control in Paired-t-test.

endoserine-1 (ET-1) = experiment: ET-1 expression suppression test (real time PCR); conditions: 0.5 mM, 24 hours, NHEK (NB), control 1.00, GAPDH corrected
Method: as §1, §2

keratin 10 (K10) = experiment: K10 expression promotion test (real time PCR); conditions: 0.5 mM, 24 hours, NHEK (NB), control 1.00, GAPDH corrected
Method: as §1, §2

filaggrin (FLG) = experiment: FLG expression promotion test (real time PCR); conditions: 0.5 mM, 72 hours, NHEK (NB), control 1.00, GAPDH corrected
Method: as §1, §2

[2] = system: hyaluronic acid synthase 2 (HAS2); experiment: HAS2 expression promotion test (real time PCR); conditions: 0.5 mM, 48 hours, NHEK (NB), control 1.00, GAPDH corrected
Method: as §1, §2

involucrin (ivl) = experiment: ivl expression promotion test (real time PCR); conditions: 0.5 mM, 48 hours, NHEK (NB), control 1.00, GAPDH corrected
Method: as §1, §2

| Substance | Transglutaminase 1 RNA expression amount [1] | Endoserine-I RNA expression amount (endoserine-1 (ET-1)) | Keratin 10 RNA expression amount (keratin 10 (K10)) | Filaggrin RNA expression amount (filaggrin (FLG)) | Hyaluronic acid synthase 2 RNA expression amount [2] | Involucrin RNA expression amount (involucrin (ivl)) |
| --- | --- | --- | --- | --- | --- | --- |
| Pro-Ala-Gly [Example 4] | 3.11 ± 0.02*** | 0.67 ± 0.01** | 3.98 ± 0.23*** | 5.33 ± 1.25*** | 2.99 ± 1.03** | 2.75 ± 0.03*** |
| Pro-Gly [Comparative Example 4] | 0.64 ± 0.01*** | 1.06 ± 0.10** | 0.89 ± 0.01* | 0.86 ± 0.18 | 0.54 ± 0.98* | 0.72 ± 0.02* |
| Pro-Pro [Comparative Example 5] | 0.64 ± 0.01*** | 1.65 ± 0.07* | 0.98 ± 0.16 | 0.66 ± 0.09** | 0.78 ± 0.64* | 0.56 ± 0.04* |
| Pro-[Hyp]-Gly [Example 5] | 5.36 ± 0.01*** | 0.53 ± 0.00 | 3.81 ± 0.17*** | 5.32 ± 0.69*** | 2.45 ± 0.90** | 1.75 ± 0.22* |
| Ser-[Hyp]-Gly [Example 10] | 1.21 ± 0.01 | 0.89 ± 0.07* | 1.77 ± 0.04** | 2.29 ± 0.26** | 2.14 ± 0.89* | 1.59 ± 0.05* |
